Results: patent publication US20260007133A1, “HERBICIDAL COMPOSITION COMPRISING AZINE COMPOUNDS” (BASF SE, priority 2022, published 2026)
Where two headings read alike, the source gives them in different places.

What was measured:
Format in all cases: in vivo
[1] = tested on: Euphorbia heterophylla; test: Greenhouse post-emergence (POST) herbicidal test on EPHHL; conditions: for % activity: EPHHL POST
Description: (§1) The culture containers used were plastic pots containing loamy sand with approximately 3.0% of humus as substrate. The seeds of the test plants were sown separately for each species.
(§2) For the post-emergence treatment, the test plants were grown to a plant height of from 3 to 15 cm, depending on the plant habit, and only then treated with the active compounds which had been suspended or emulsified in water. To this end, the test plants were either sown directly, and grown in the same containers, or they were first grown separately as seedlings and transplanted into the test containers a few days prior to treatment.
(§3) Depending on the species, the plants were kept at 10-25° C. and 20-35° C., respectively.
(§4) The test period extended over 2 to 4 weeks. During this time, the plants were tended and their response to the individual treatments was evaluated.
(§5) Evaluation was carried out using a scale from 0 to 100. 100 means no emergence of the plants, or complete destruction of at least the above-ground parts, and 0 means no damage or normal course of growth. A good herbicidal activity is given at values of at least 70, and very good herbicidal activity is given at values of at least 85.
(§6) If not stated differently, the respective components A and B, and if appropriate, C were formulated as a 5% by weight strength emulsion concentrate and, with addition of the amount of solvent system, introduced into the spray liquor used for applying the active compound.
(§7) As indicated application was either post emergent (POST) at the respective growth stage (GS) of the weed (BBCH code), or pre-emergent (PRE). […]

[2] = tested on: Ipomoea hederacea; test: Greenhouse post-emergence (POST) herbicidal test on IPOHE
Description: as §1, §2, §3, §4, §5, §6
As indicated application was either post emergent (POST) at the respective growth stage (GS) of the weed (BBCH code), or pre-emergent (PRE).
Assessment was 20 days after treatment (DAT).

[3] = tested on: Amaranthus retroflexus; test: Greenhouse post-emergence (POST) herbicidal test on AMARE
Description: as §1, §2, §3, §4, §5, §6, §7

[4] = tested on: Abutilon theophrasti; test: Greenhouse post-emergence (POST) herbicidal test on ABUTH; conditions: for % activity: ABUTH POST
Description: as §1, §2, §3, §4, §5, §6, §7

[5] = tested on: Lolium multiflorum; test: Greenhouse pre-emergence (PRE) herbicidal test on LOLMU
Description: as §1
(§8) The containers were irrigated gently to promote germination and growth and subsequently covered with transparent plastic hoods until the plants had rooted.
as §3, §4, §5, §7

[6] = tested on: Setaria viridis; test: Greenhouse pre-emergence (PRE) herbicidal test on SETVI; conditions: for inhibition at 6.25 g/ha / inhibition at 12.5 g/ha: read-out: % activity
Description: as §1
For the pre-emergence treatment, the active compounds, suspended or emulsified in water, were applied directly after sowing by means of finely distributing nozzles. The containers were irrigated gently to promote germination and growth and subsequently covered with transparent plastic hoods until the plants had rooted. This cover caused uniform germination of the test plants unless this was adversely affected by the active compounds.
as §3, §4, §5, §6, §7

[7] = tested on: Echinochloa crus-galli; test: Greenhouse pre-emergence (PRE) herbicidal test on ECHCG
Description: as §1, §8, §3, §4, §5, §7

[8] = tested on: Alopecurus myosuroides; test: Greenhouse pre-emergence (PRE) herbicidal test on ALOMY; conditions: Alopecurus myosuroides, pre-emergence; for inhibition at 6.25 g/ha: read-out: % activity
Description: as §1, §8, §3, §4, §5, §7

[9] = tested on: Commelina benghalensis; test: Greenhouse pre-emergence (PRE) herbicidal test on COMBE; conditions: Commelina benghalensis, pre-emergence
Description: as §1, §8, §3, §4, §5, §7

[10] = tested on: Ambrosia artemisiifolia; test: Greenhouse pre-emergence (PRE) herbicidal test on AMBEL; conditions: PRE, AMBEL, 20 DAT
Description: as §1, §8, §3, §4, §5, §7

[11] = tested on: Echinochloa crus-galli; test: Greenhouse post-emergence (POST) herbicidal test on ECHCG; conditions: Echinochloa crus-galli, post-emergence
Description: as §1, §2, §3, §4, §5, §6, §7

[12] = tested on: Euphorbia heterophylla; test: Greenhouse pre-emergence (PRE) herbicidal test on EPHHL; conditions: Euphorbia heterophylla, pre-emergence, 480 h, PRE, 20 DAT
Description: as §1, §8, §3, §4, §5, §7

[13] = tested on: Abutilon theophrasti; test: Greenhouse pre-emergence (PRE) herbicidal test on ABUTH; conditions: Abutilon theophrasti, pre-emergence, 480 h, PRE, 20 DAT
Description: as §1, §8, §3, §4, §5, §7

[14] = tested on: Digitaria sanguinalis; test: Greenhouse post-emergence (POST) herbicidal test on DIGSA; conditions: for % activity: DIGSA POST
Description: as §1, §2, §3, §4, §5, §6, §7

[15] = tested on: Geranium pusillum; test: Greenhouse post-emergence (POST) herbicidal test on GERPU; conditions: Geranium pusillum, post-emergence
Description: as §1, §2, §3, §4, §5, §6, §7

[16] = Setaria viridis, pre-emergence, 480 h
[17] = Echinochloa crus-galli, pre-emergence, 480 h, read-out: % activity
[18] = Amaranthus retroflexus, post-emergence, read-out: % activity

## CN1C[C@H](c2cccc(C(F)(F)F)c2)[C@@H](C(=O)Nc2ccccc2F)C1=O [Tetflupyrolimet, tetflupyrolimet]
[1]; use rate 31.25 gai/ha
  % activity: 0%
[1]; use rate 250 gai/ha
  % activity: 0%
[2]; IPOHE POST, use rate 31.25 gai/ha
  % activity: 0%
[3]; AMARE POST, use rate 250 gai/ha
  % activity: 35%
[4]; use rate 250 gai/ha
  % activity: 5%

## CCC/C(=N\OCC)C1=C(O)CC(CC(C)SCC)CC1=O (stereo not shown) [Sethoxydim, sethoxydim]
[5]; Lolium multiflorum, pre-emergence, 480 h, read-out: % activity
  inhibition at 6.25 g/ha: 15%
[6]; [16]
  inhibition at 6.25 g/ha: 5%
  inhibition at 12.5 g/ha: 60%
[6]; Setaria viridis, pre-emergence
  inhibition at 6.25 g/ha: 5%
  inhibition at 12.5 g/ha: 60%
[7]; [17]
  inhibition at 6.25 g/ha: 10%
  inhibition at 12.5 g/ha: 40%
[8]; 480 h
  inhibition at 6.25 g/ha: 20%
[8]
  inhibition at 6.25 g/ha: 20%
[9]; read-out: % activity
  inhibition at 6.25 g/ha: 0%

## CC(C)N1C(=O)c2ccccc2NS1(=O)=O [Bentazone]
[10]; Ambrosia artemisiifolia, pre-emergence, 480 h, use rate 240 gai/ha, read-out: solo application % activity
  inhibition at 240 g/ha: 0%
[10]; Ambrosia artemisiifolia, pre-emergence, 480 h, use rate 480 gai/ha, read-out: solo application % activity
  inhibition at 480 g/ha: 0%
[11]; 480 h, POST, ECHCG, use rate 240 gai/ha, 20 DAT, read-out: solo application % activity
  inhibition at 240 g/ha: 10%
[11]; 480 h, POST, ECHCG, use rate 480 gai/ha, 20 DAT, read-out: solo application % activity
  inhibition at 480 g/ha: 30%
[12]; EPHHL, use rate 240 gai/ha, read-out: solo application % activity
  inhibition at 240 g/ha: 5%
[12]; EPHHL, use rate 480 gai/ha, read-out: solo application % activity
  inhibition at 480 g/ha: 5%
[6]; Setaria viridis, pre-emergence, 480 h, PRE, SETVI, use rate 240 gai/ha, 20 DAT, read-out: solo application % activity
  inhibition at 240 g/ha: 10%
[6]; Setaria viridis, pre-emergence, 480 h, PRE, SETVI, use rate 480 gai/ha, 20 DAT, read-out: solo application % activity
  inhibition at 480 g/ha: 0%
[13]; ABUTH, use rate 240 gai/ha, read-out: solo application % activity
  inhibition at 240 g/ha: 30%
[14]; Digitaria sanguinalis, post-emergence, 480 h, POST, DIGSA, use rate 240 gai/ha, 20 DAT, read-out: solo application % activity
  inhibition at 240 g/ha: 0%
[1]; Euphorbia heterophylla, post-emergence, 480 h, POST, EPHHL, use rate 240 gai/ha, 20 DAT, read-out: solo application % activity
  inhibition at 240 g/ha: 0%
[1]; Euphorbia heterophylla, post-emergence, 480 h, POST, EPHHL, use rate 480 gai/ha, 20 DAT, read-out: solo application % activity
  inhibition at 480 g/ha: 0%
[8]; 480 h, PRE, ALOMY, use rate 240 gai/ha, 20 DAT, read-out: solo application % activity
  inhibition at 240 g/ha: 15%
[2]; Ipomoea hederacea, post-emergence, 480 h, POST, IPOHE, use rate 240 gai/ha, 20 DAT, read-out: solo application % activity
  inhibition at 240 g/ha: 0%
[9]; 480 h, PRE, COMBE, use rate 240 gai/ha, 20 DAT, read-out: solo application % activity
  inhibition at 240 g/ha: 0%
[4]; Abutilon theophrasti, post-emergence, 480 h, POST, ABUTH, use rate 480 gai/ha, 20 DAT, read-out: solo application % activity
  inhibition at 480 g/ha: 10%

## Cc1cccc(C2CC2)c1Oc1nnc(Cl)cc1OC(=O)N1CCOCC1 [Cyclopyrimorate, cyclopyrimorate]
[14]; use rate 25 gai/ha
  % activity: 10%
[14]; use rate 200 gai/ha
  % activity: 40%
[2]; IPOHE POST, use rate 25 gai/ha
  % activity: 40%
[4]; use rate 25 gai/ha
  % activity: 5%

## Cc1c(C(=O)c2cnn(C)c2O)ccc(S(C)(=O)=O)c1C1=NOCC1 [Topramezone, topramezone]
[10]; use rate 6.25 gai/ha
  % activity: 0%
[5]; PRE, LOLMU, use rate 3.125 gai/ha, 20 DAT
  % activity: 0%
[6]; PRE, SETVI, use rate 3.125 gai/ha, 20 DAT
  % activity: 0%
[7]; PRE, ECHCG, use rate 6.25 gai/ha, 20 DAT
  % activity: 10%
[2]; POST, IPOHE, use rate 3.125 gai/ha, 20 DAT
  % activity: 15%
[2]; POST, IPOHE, use rate 6.25 gai/ha, 20 DAT
  % activity: 35%

## CCCC(=NOCC)C1=C(O)CC(C2CCCSC2)CC1=O (stereo not shown) [Cycloxydim, cycloxydim]
[10]; Ambrosia artemisiifolia, pre-emergence, 480 h, use rate 5 gai/ha, read-out: solo application % activity
  inhibition at 5 g/ha: 0%
[10]; Ambrosia artemisiifolia, pre-emergence, 480 h, use rate 20 gai/ha, read-out: solo application % activity
  inhibition at 20 g/ha: 0%
[12]; 5 gai/ha
  pest or weed control at 5 g/ha: 5%
[12]; EPHHL, use rate 5 gai/ha, read-out: solo application % activity
  inhibition at 5 g/ha: 5%
[12]; EPHHL, use rate 20 gai/ha, read-out: solo application % activity
  inhibition at 20 g/ha: 10%
[13]; 5 gai/ha
  pest or weed control at 5 g/ha: 0%
[13]; ABUTH, use rate 5 gai/ha, read-out: solo application % activity
  inhibition at 5 g/ha: 0%
[1]; Euphorbia heterophylla, post-emergence, 480 h, POST, EPHHL, use rate 20 gai/ha, 20 DAT, read-out: solo application % activity
  inhibition at 20 g/ha: 0%
[8]; 480 h, PRE, 20 gai/ha, 20 DAT
  pest or weed control at 20 g/ha: 60%
[8]; 480 h, PRE, ALOMY, use rate 5 gai/ha, 20 DAT, read-out: solo application % activity
  inhibition at 5 g/ha: 15%
[8]; 480 h, PRE, ALOMY, use rate 20 gai/ha, 20 DAT, read-out: solo application % activity
  inhibition at 20 g/ha: 60%
[2]; Ipomoea hederacea, post-emergence, 480 h, POST, 5 gai/ha, 20 DAT
  pest or weed control at 5 g/ha: 0%
[2]; Ipomoea hederacea, post-emergence, 480 h, POST, IPOHE, use rate 5 gai/ha, 20 DAT, read-out: solo application % activity
  inhibition at 5 g/ha: 0%
[2]; Ipomoea hederacea, post-emergence, 480 h, POST, IPOHE, use rate 20 gai/ha, 20 DAT, read-out: solo application % activity
  inhibition at 20 g/ha: 0%
[3]; Amaranthus retroflexus, post-emergence, 480 h, POST, AMARE, use rate 5 gai/ha, 20 DAT, read-out: solo application % activity
  inhibition at 5 g/ha: 0%
[15]; 480 h, POST, GERPU, use rate 5 gai/ha, 20 DAT, read-out: solo application % activity
  inhibition at 5 g/ha: 5%
[4]; Abutilon theophrasti, post-emergence, 480 h, POST, 5 gai/ha, 20 DAT
  pest or weed control at 5 g/ha: 0%
[4]; Abutilon theophrasti, post-emergence, 480 h, POST, ABUTH, use rate 5 gai/ha, 20 DAT, read-out: solo application % activity
  inhibition at 5 g/ha: 0%
[4]; Abutilon theophrasti, post-emergence, 480 h, POST, ABUTH, use rate 20 gai/ha, 20 DAT, read-out: solo application % activity
  inhibition at 20 g/ha: 0%

## O=C(O)CNCP(=O)(O)O [Glyphosate, glyphosate]
[11]; read-out: % activity
  inhibition at 100 g/ha: 30%
  inhibition at 200 g/ha: 35%
[2]; Ipomoea hederacea, post-emergence, read-out: % activity
  inhibition at 200 g/ha: 15%
[3]; [18]
  inhibition at 100 g/ha: 10%
  inhibition at 200 g/ha: 80%
[15]; read-out: % activity
  inhibition at 100 g/ha: 45%
[4]; Abutilon theophrasti, post-emergence, read-out: % activity
  inhibition at 200 g/ha: 25%
